# Measurements from patent US4345938A, “Herbicidal 2-haloacetanilides” (Monsanto Company, priority 1980, dated 1982).
# Where two headings read alike, the source gives them in different places.
# Experiments:
# Format in all cases: in vivo
# Echinochloa crus-galli = experiment: Field transplant rice test, applied 0 DAT, EC; settings: 0 h, read-out: Percent Inhibition, EC; for inhibition at 375 g/ha: 0.375 Kg/Ha; for inhibition at 750 g/ha: 0.75 Kg/Ha; for inhibition at 1500 g/ha: 1.5 Kg/Ha; for inhibition at 3000 g/ha: 3.0 Kg/Ha
# Method: (§1) The test data in Table III for all compounds was obtained under identical test conditions. The weeds used in the tests herein have the following abbreviations in the tables: Echinochloa crus-galli (EC), Monochloria vaginalis (MV), Cyperus Serotinus (CS), Eleocharis Kuroguwai (EK) and Sagittaria trifolia (ST).
# (§2) In further comparative tests, a preferred compound of this invention (Example 1) was tested in the field with prior art Compounds A-D. These tests were conducted under conditions reflecting herbicide application times generally favorable to all herbicides in the test. The timing of application of herbicides to transplant rice is very important, whether, as in some instances, prior to transplanting the rice; in other instances, at the time of transplanting or else after transplanting. Application times are conventionally referred to as "days before transplant" (DBT) or "days after transplant" ("DAT"). The field test data in Table IV was obtained from a test in which the herbicides were applied at the time of transplant, i.e., "0 DAT", with observations being made weekly up to six weeks after transplant ("WAT") beginning at two weeks after transplant; for illustrative and representative purposes, only the early, middle and late period observations, i.e., 2 WAT, 4 WAT and 6 WAT, are shown in Table IV. The data in Table IV is for rates of application common to all herbicides in the test, i.e., from 3.0 kg/ha (2.67 lb/A) down to 0.375 kg/ha (0.34 lb/A). All herbicides were applied at their actual or expected use rates, i.e., as granules containing 2.5% by weight herbicide for the compound of Example 1, Compounds B, C and D and 5.0% by weight for Compound A.
# Rice = experiment: Field transplant rice test, applied 0 DAT, rice injury; settings: for inhibition at 375 g/ha / inhibition at 750 g/ha / inhibition at 1500 g/ha / inhibition at 3000 g/ha: Oryza sativa, 0 h, read-out: Percent Inhibition, Rice; for inhibition at 375 g/ha: 0.375 Kg/Ha; for inhibition at 750 g/ha: 0.75 Kg/Ha; for inhibition at 1500 g/ha: 1.5 Kg/Ha; for inhibition at 3000 g/ha: 3.0 Kg/Ha
# Method: as §2
# Sagittaria trifolia = experiment: Field transplant rice test, applied 0 DAT, ST; settings: 0 h, read-out: Percent Inhibition, ST; for inhibition at 375 g/ha: 0.375 Kg/Ha; for inhibition at 750 g/ha: 0.75 Kg/Ha; for inhibition at 1500 g/ha: 1.5 Kg/Ha; for inhibition at 3000 g/ha: 3.0 Kg/Ha
# Method: as §1, §2
# Cyperus serotinus = experiment: Field transplant rice test, applied 0 DAT, CS; settings: 0 h, read-out: Percent Inhibition, CS; for inhibition at 375 g/ha: 0.375 Kg/Ha; for inhibition at 750 g/ha: 0.75 Kg/Ha; for inhibition at 1500 g/ha: 1.5 Kg/Ha; for inhibition at 3000 g/ha: 3.0 Kg/Ha
# Method: as §1, §2
# Eleocharis kuroguwai = experiment: Field transplant rice test, applied 9 DAT, EK; settings: for inhibition at 375 g/ha / inhibition at 750 g/ha / inhibition at 1500 g/ha / inhibition at 3000 g/ha: Eleocharis kuroguwai, 216 h, read-out: Percent Inhibition, EK; for inhibition at 375 g/ha: 0.375 Kg/Ha; for inhibition at 750 g/ha: 0.75 Kg/Ha; for inhibition at 1500 g/ha: 1.5 Kg/Ha; for inhibition at 3000 g/ha: 3.0 Kg/Ha
# Description: In the discussion of data below, occasional reference is made to herbicide application rates symbolized as "GR15 " and "GR85 "; these rates are given in kilograms per hectare (kg/ha) which are convertible into pounds per acre (lbs/A) by dividing the kg/ha rate by 1.12.
# A further guide to the effectiveness of a chemical as a selective herbicide is the "selectivity factor" ("SF") for a herbicide in given crops and weeds. The selectivity factor is a measure of the relative degree of crop safety and weed injury and is expressed in terms of the GR15 /GR85 ratio, i.e., the GR15 rate for the crop divided by the GR85 rate for the weed, both rates in kg/ha (lb/A.)
# as §1, §2
# In Table V are presented field data showing the relative performance of the compound of Example 1 and Compounds A-D applied 9 DAT, with observations being made weekly from 3 WAT to 7 WAT; again, for illustrative and representative purposes, only the early, middle and late period observations are reported in Table V, the herbicide rates and concentrations of active ingredients the same as is shown in Table IV.
smiles,measurement,setting,value
"CCCCOCCN(C(=O)CCl)c1c(CC)cccc1CC [Compound B, 2',6'-diethyl-N-(n-butoxyethyl)-2-chloroacetanilide]",inhibition at 375 g/ha,Echinochloa crus-galli; 2 WAT,55%
same,inhibition at 375 g/ha,Echinochloa crus-galli; 4 WAT,68%
same,inhibition at 375 g/ha,Echinochloa crus-galli; 6 WAT,37%
same,inhibition at 750 g/ha,Echinochloa crus-galli; 2 WAT,87%
same,inhibition at 750 g/ha,Echinochloa crus-galli; 4 WAT,93%
same,inhibition at 750 g/ha,Echinochloa crus-galli; 6 WAT,88%
same,inhibition at 1500 g/ha,Echinochloa crus-galli; 2 WAT,90%
same,inhibition at 1500 g/ha,Echinochloa crus-galli; 4 WAT,98%
same,inhibition at 1500 g/ha,Echinochloa crus-galli; 6 WAT,98%
same,inhibition at 3000 g/ha,Echinochloa crus-galli; 2 WAT,97%
same,inhibition at 3000 g/ha,Echinochloa crus-galli; 4 WAT,100%
same,inhibition at 3000 g/ha,Echinochloa crus-galli; 6 WAT,100%
same,inhibition at 375 g/ha,Rice; 2 WAT,7%
same,inhibition at 375 g/ha,Rice; 4 WAT,3%
same,inhibition at 375 g/ha,Rice; 6 WAT,7%
same,inhibition at 750 g/ha,Rice; 2 WAT,3%
same,inhibition at 750 g/ha,Rice; 4 WAT,2%
same,inhibition at 750 g/ha,Rice; 6 WAT,3%
same,inhibition at 1500 g/ha,Rice; 2 WAT,10%
same,inhibition at 1500 g/ha,Rice; 4 WAT,3%
same,inhibition at 1500 g/ha,Rice; 6 WAT,0%
same,inhibition at 3000 g/ha,Rice; 2 WAT,7%
same,inhibition at 3000 g/ha,Rice; 4 WAT,2%
same,inhibition at 3000 g/ha,Rice; 6 WAT,3%
same,inhibition at 375 g/ha,Sagittaria trifolia; 2 WAT,27%
same,inhibition at 375 g/ha,Sagittaria trifolia; 4 WAT,10%
same,inhibition at 375 g/ha,Sagittaria trifolia; 6 WAT,5%
same,inhibition at 750 g/ha,Sagittaria trifolia; 2 WAT,27%
same,inhibition at 750 g/ha,Sagittaria trifolia; 4 WAT,15%
same,inhibition at 750 g/ha,Sagittaria trifolia; 6 WAT,7%
same,inhibition at 1500 g/ha,Sagittaria trifolia; 2 WAT,62%
same,inhibition at 1500 g/ha,Sagittaria trifolia; 4 WAT,12%
same,inhibition at 1500 g/ha,Sagittaria trifolia; 6 WAT,7%
same,inhibition at 3000 g/ha,Sagittaria trifolia; 2 WAT,32%
same,inhibition at 3000 g/ha,Sagittaria trifolia; 4 WAT,30%
same,inhibition at 3000 g/ha,Sagittaria trifolia; 6 WAT,13%
same,inhibition at 375 g/ha,Cyperus serotinus; 2 WAT,62%
same,inhibition at 375 g/ha,Cyperus serotinus; 4 WAT,55%
same,inhibition at 375 g/ha,Cyperus serotinus; 6 WAT,3%
same,inhibition at 750 g/ha,Cyperus serotinus; 2 WAT,70%
same,inhibition at 750 g/ha,Cyperus serotinus; 4 WAT,53%
same,inhibition at 750 g/ha,Cyperus serotinus; 6 WAT,12%
same,inhibition at 1500 g/ha,Cyperus serotinus; 2 WAT,82%
same,inhibition at 1500 g/ha,Cyperus serotinus; 4 WAT,83%
same,inhibition at 1500 g/ha,Cyperus serotinus; 6 WAT,45%
same,inhibition at 3000 g/ha,Cyperus serotinus; 2 WAT,72%
same,inhibition at 3000 g/ha,Cyperus serotinus; 4 WAT,62%
same,inhibition at 3000 g/ha,Cyperus serotinus; 6 WAT,37%
same,"selectivity factor (GR15/GR85), EK in transplant rice",Eleocharis kuroguwai; 3 WAT,non-selective
same,inhibition at 375 g/ha,Eleocharis kuroguwai; 3 WAT,27%
same,inhibition at 375 g/ha,Eleocharis kuroguwai; 5 WAT,3%
same,inhibition at 375 g/ha,Eleocharis kuroguwai; 7 WAT,0%
same,inhibition at 750 g/ha,Eleocharis kuroguwai; 3 WAT,28%
same,inhibition at 750 g/ha,Eleocharis kuroguwai; 5 WAT,5%
same,inhibition at 750 g/ha,Eleocharis kuroguwai; 7 WAT,0%
same,inhibition at 1500 g/ha,Eleocharis kuroguwai; 3 WAT,42%
same,inhibition at 1500 g/ha,Eleocharis kuroguwai; 5 WAT,32%
same,inhibition at 1500 g/ha,Eleocharis kuroguwai; 7 WAT,0%
same,inhibition at 3000 g/ha,Eleocharis kuroguwai; 3 WAT,55%
same,inhibition at 3000 g/ha,Eleocharis kuroguwai; 5 WAT,43%
same,inhibition at 3000 g/ha,Eleocharis kuroguwai; 7 WAT,18%
"CCCCOCN(C(=O)CCl)c1c(C)cccc1C(C)(C)C [Compound C, 2'-methyl-6'-tert-butyl-N-(n-butoxymethyl)-2-chloroacetanilide]",inhibition at 375 g/ha,Echinochloa crus-galli; 2 WAT,98%
same,inhibition at 375 g/ha,Echinochloa crus-galli; 4 WAT,100%
same,inhibition at 375 g/ha,Echinochloa crus-galli; 6 WAT,98%
same,inhibition at 750 g/ha,Echinochloa crus-galli; 2 WAT,100%
same,inhibition at 750 g/ha,Echinochloa crus-galli; 4 WAT,100%
same,inhibition at 750 g/ha,Echinochloa crus-galli; 6 WAT,100%
same,inhibition at 1500 g/ha,Echinochloa crus-galli; 2 WAT,100%
same,inhibition at 1500 g/ha,Echinochloa crus-galli; 4 WAT,100%
same,inhibition at 1500 g/ha,Echinochloa crus-galli; 6 WAT,100%
same,inhibition at 3000 g/ha,Echinochloa crus-galli; 2 WAT,98%
same,inhibition at 3000 g/ha,Echinochloa crus-galli; 4 WAT,100%
same,inhibition at 3000 g/ha,Echinochloa crus-galli; 6 WAT,100%
same,injury rate in rice,"Rice; 1.5 kg/ha (1.34 lb/A), after 4 WAT",greater than 15%
same,inhibition at 375 g/ha,Rice; 2 WAT,3%
same,inhibition at 375 g/ha,Rice; 4 WAT,0%
same,inhibition at 375 g/ha,Rice; 6 WAT,0%
same,inhibition at 750 g/ha,Rice; 2 WAT,2%
same,inhibition at 750 g/ha,Rice; 4 WAT,2%
same,inhibition at 750 g/ha,Rice; 6 WAT,2%
same,inhibition at 1500 g/ha,Rice; 2 WAT,12%
same,inhibition at 1500 g/ha,Rice; 4 WAT,18%
same,inhibition at 1500 g/ha,Rice; 6 WAT,18%
same,inhibition at 3000 g/ha,Rice; 2 WAT,22%
same,inhibition at 3000 g/ha,Rice; 4 WAT,27%
same,inhibition at 3000 g/ha,Rice; 6 WAT,30%
same,inhibition at 375 g/ha,Sagittaria trifolia; 2 WAT,30%
same,inhibition at 375 g/ha,Sagittaria trifolia; 4 WAT,5%
same,inhibition at 375 g/ha,Sagittaria trifolia; 6 WAT,0%
same,inhibition at 750 g/ha,Sagittaria trifolia; 2 WAT,33%
same,inhibition at 750 g/ha,Sagittaria trifolia; 4 WAT,18%
same,inhibition at 750 g/ha,Sagittaria trifolia; 6 WAT,8%
same,inhibition at 1500 g/ha,Sagittaria trifolia; 2 WAT,38%
same,inhibition at 1500 g/ha,Sagittaria trifolia; 4 WAT,30%
same,inhibition at 1500 g/ha,Sagittaria trifolia; 6 WAT,17%
same,inhibition at 3000 g/ha,Sagittaria trifolia; 2 WAT,53%
same,inhibition at 3000 g/ha,Sagittaria trifolia; 4 WAT,35%
same,inhibition at 3000 g/ha,Sagittaria trifolia; 6 WAT,18%
same,inhibition at 375 g/ha,Cyperus serotinus; 2 WAT,93%
same,inhibition at 375 g/ha,Cyperus serotinus; 4 WAT,92%
same,inhibition at 375 g/ha,Cyperus serotinus; 6 WAT,72%
same,inhibition at 750 g/ha,Cyperus serotinus; 2 WAT,70%
same,inhibition at 750 g/ha,Cyperus serotinus; 4 WAT,82%
same,inhibition at 750 g/ha,Cyperus serotinus; 6 WAT,77%
same,inhibition at 1500 g/ha,Cyperus serotinus; 2 WAT,93%
same,inhibition at 1500 g/ha,Cyperus serotinus; 4 WAT,99%
same,inhibition at 1500 g/ha,Cyperus serotinus; 6 WAT,100%
same,inhibition at 3000 g/ha,Cyperus serotinus; 2 WAT,95%
same,inhibition at 3000 g/ha,Cyperus serotinus; 4 WAT,100%
same,inhibition at 3000 g/ha,Cyperus serotinus; 6 WAT,100%
same,inhibition at 375 g/ha,Eleocharis kuroguwai; 3 WAT,52%
same,inhibition at 375 g/ha,Eleocharis kuroguwai; 5 WAT,23%
same,inhibition at 375 g/ha,Eleocharis kuroguwai; 7 WAT,15%
same,inhibition at 750 g/ha,Eleocharis kuroguwai; 3 WAT,75%
same,inhibition at 750 g/ha,Eleocharis kuroguwai; 5 WAT,68%
same,inhibition at 750 g/ha,Eleocharis kuroguwai; 7 WAT,32%
same,inhibition at 1500 g/ha,Eleocharis kuroguwai; 3 WAT,70%
same,inhibition at 1500 g/ha,Eleocharis kuroguwai; 5 WAT,77%
same,inhibition at 1500 g/ha,Eleocharis kuroguwai; 7 WAT,38%
same,inhibition at 3000 g/ha,Eleocharis kuroguwai; 3 WAT,83%
same,inhibition at 3000 g/ha,Eleocharis kuroguwai; 5 WAT,93%
same,inhibition at 3000 g/ha,Eleocharis kuroguwai; 7 WAT,74%
same,"selectivity factor (GR15/GR85), EK in transplant rice",Eleocharis kuroguwai; at 5 WAT,greater than 1
